Measured values: PMC9032385, “A2A Adenosine Receptor Antagonists: Are Triazolotriazine and Purine Scaffolds Interchangeable?” (Molecules, 2022)
pKi: −log10 of the molar value.

Tests used:
[1] = test system: tremor induced by tacrine; parameters: method as in PMID 35184706; details: cited from earlier work
[2] = biological target: T1, A2BAR (Homo sapiens, UniProt P29275); details: reference compound ANR 94, reference printed at end of table row; cited from earlier work
T1 construct: expressed in transfected cells
T1 sequence (P29275 1-332): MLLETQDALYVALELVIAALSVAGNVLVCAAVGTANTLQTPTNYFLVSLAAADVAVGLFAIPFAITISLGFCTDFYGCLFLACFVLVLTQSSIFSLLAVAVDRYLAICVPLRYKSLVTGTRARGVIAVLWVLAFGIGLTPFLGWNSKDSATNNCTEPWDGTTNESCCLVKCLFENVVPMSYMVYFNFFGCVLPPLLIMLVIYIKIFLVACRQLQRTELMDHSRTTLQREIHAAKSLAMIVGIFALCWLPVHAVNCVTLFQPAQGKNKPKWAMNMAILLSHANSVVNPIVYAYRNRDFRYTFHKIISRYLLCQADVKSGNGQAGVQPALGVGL

[3] = biological target: T2, human recombinant A3AR (Homo sapiens, UniProt P0DMS8); details: reference compound ANR 94; cited from earlier work
T2 construct: expressed in transfected cells; membrane preparation
T2 sequence (P0DMS8 1-318): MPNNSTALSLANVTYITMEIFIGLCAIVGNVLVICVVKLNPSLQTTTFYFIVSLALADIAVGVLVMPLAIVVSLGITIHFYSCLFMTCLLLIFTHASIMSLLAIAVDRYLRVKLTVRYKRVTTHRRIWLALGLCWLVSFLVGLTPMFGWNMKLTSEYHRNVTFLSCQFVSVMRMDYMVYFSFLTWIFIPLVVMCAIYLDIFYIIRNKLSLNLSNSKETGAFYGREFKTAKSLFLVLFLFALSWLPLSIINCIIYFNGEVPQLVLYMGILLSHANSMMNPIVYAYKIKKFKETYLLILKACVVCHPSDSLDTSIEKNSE

[4] = biological target: T3, human recombinant A1AR (Homo sapiens, UniProt P30542); details: reference compound ANR 94, reference printed at end of table row; cited from earlier work
T3 construct: expressed in transfected cells; membrane preparation
T3 sequence (P30542 1-326): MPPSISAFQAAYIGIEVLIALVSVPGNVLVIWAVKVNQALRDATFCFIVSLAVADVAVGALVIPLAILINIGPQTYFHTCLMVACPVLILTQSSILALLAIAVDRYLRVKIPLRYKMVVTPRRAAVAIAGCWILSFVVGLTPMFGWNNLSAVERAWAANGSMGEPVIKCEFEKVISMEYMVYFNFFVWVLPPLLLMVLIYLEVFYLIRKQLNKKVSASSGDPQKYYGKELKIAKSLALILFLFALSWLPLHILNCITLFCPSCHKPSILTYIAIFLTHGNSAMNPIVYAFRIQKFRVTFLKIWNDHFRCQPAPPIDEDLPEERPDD

[5] = test system: murine model of PD; parameters: method as in PMID 19951715; details: cited from earlier work
[6] = test system: catalepsy induced by haloperidol; parameters: method as in PMID 35184706; details: in vivo model of Parkinson's disease; cited from earlier work
[7] = test system: rats sensitized to L-DOPA; parameters: method as in PMID 35184706; details: cited from earlier work
[8] = test system: BV-2 murine microglial cells; assay: RT-PCR expression of inflammatory mediators in LPS-activated BV-2 cells; format: cell-based; details: 10 nM for 24 h, then 100 ng/mL LPS 24 h
Description: BV-2 cells were treated with 13 or ANR 94 (10 nM) and activated with 100 ng/mL LPS for 24 h. Total RNA was isolated, and proinflammatory cytokine and enzyme expressions were measured using RT-PCR (Figure 5).
Cell Cultures and Treatments: BV-2 murine microglial cells (a gift from Prof. Elisabetta Blasi of the University of Modena and Reggio Emilia, Modena, Italy) were maintained at 37 °C and 5% CO2 in a humidified incubator and grown in DMEM supplemented with 10% (v/v) low-endotoxin fetal bovine serum (Euroclone—Milan, Italy), 2 mM L-glutamine, 50 U/mL penicillin, and 50 μg/mL streptomycin (Sigma-Aldrich–Merck, Milan, Italy). Cells were seeded at 50,000 cells/mL in 96-well tissue culture plates for the viability assay, in 6-well tissue culture plates for the Griess assay and RT-PCR assay. BV-2 cells were treated for 24 h with ANR 94 or 13 at different concentrations and then exposed to LPS (100 ng/mL; Sigma-Aldrich–Merck) for a further 24 h.
Real-Time Polymerase Chain Reaction (PCR): At the end of the experiments, total RNA was extracted by BV-2 cells using RNeasy Mini Kit (QIAGEN GmbH, Hilden, Germany). RNA concentraion and quality were measured on a NanoVue Spectrophotometer (GE Healthcare, Milano, Italy). iScript cDNA Synthesis Kit (Bio-Rad, Hercules, CA, USA) was used to synthesize cDNA starting from the extracted RNA, following the supplier’s instructions. PCR was performed by adding 2.5 μL (12.5 ng) of cDNA, 5 μL SsoAdvanced Universal SYBR Green Supermix (Bio-Rad), and 0.5 μL (500 nM) of each primer (Table 2) to a PCR tube. cDNA amplification was started at 95 °C for 30 s to activate the polymerase, followed by 40 cycles of 5 s at 95 °C and 30 s at 60 °C. Normalized expression levels were calculated relative to the control cells according to the 2^−ΔΔCT method.

[9] = biological target: T4, human recombinant A2AAR (Homo sapiens, UniProt P29274); assay: Radioligand binding at human A2AAR ([3H]NECA displacement, CHO cell membranes); details: ratio of Ki values
T4 construct: expressed in transfected cells; membrane preparation
T4 sequence (P29274 whole entry): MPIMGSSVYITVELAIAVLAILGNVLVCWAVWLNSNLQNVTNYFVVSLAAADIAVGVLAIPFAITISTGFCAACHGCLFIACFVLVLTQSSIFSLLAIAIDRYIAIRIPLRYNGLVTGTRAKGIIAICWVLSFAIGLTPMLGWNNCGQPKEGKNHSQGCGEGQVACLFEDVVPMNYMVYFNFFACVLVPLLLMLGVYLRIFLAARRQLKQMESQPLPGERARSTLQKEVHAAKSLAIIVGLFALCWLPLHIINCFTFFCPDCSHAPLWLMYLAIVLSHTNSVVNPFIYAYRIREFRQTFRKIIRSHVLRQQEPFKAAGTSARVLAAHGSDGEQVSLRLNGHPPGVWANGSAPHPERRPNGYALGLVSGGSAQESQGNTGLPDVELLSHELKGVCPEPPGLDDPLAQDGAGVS
Description: Most of the compounds were also evaluated at A2BARs in a functional study using the GloSensor cAMP assay. […] In the case of A2BARs, Ki-values were calculated from IC50-values determined by the inhibition of NECA-stimulated adenylyl cyclase activity.
Preparation of membranes: Cell membranes for binding assays were prepared mechanically detaching the cells from the petri and suspending them in a cold hypotonic buffer (5 mM Tris/HCl, 2 mM EDTA, pH 7.4). The cell suspension was homogenized (Ultra-Turrax, 2 × 15 s at maximum speed) and the homogenate centrifuged for 10 min (4 °C) to 1000× g. […] The amount of the protein suspension was determined according to the […] using the BCA Protein Assay Kit (Pierce), frozen in liquid nitrogen, and stored at −80 °C.
Binding assays: The dissociation constants of the radioligand (KD) were calculated through saturation assays, while the dissociation constants of the compounds under study (Ki) were determined by competition experiments. All binding data were calculated by nonlinear regression curves using the software GraphPad Prism 5 (GraphPad Software, San Diego, CA, USA). The increasing concentrations of the radioligand saturation binding ([^3H]-CCPA for the A1 receptor subtype, [^3H]-NECA for the A2A receptor subtype, and [^3H]-HEMADO for the A3 receptor) subtype were incubated in a total volume of 250 μL containing 0.2 U/mL of Ado deaminase (ADA) and 12 micrograms of membrane proteins in the specific buffer. In competition experiments for the A1 receptor subtype, each compound was added at increasing concentrations, to the well containing 1 nM of [^3H]-CCPA, to a final volume of 200 μL. The samples were left to incubate for 3 h at room temperature, filtered in a filter 96-well plate (UniFilter GF/C, Perkin-Elmer Life and Analytical Science, Boston, MA) using the FilterMate Cell Harvester (Perkin-Elmer), and washed 3 times with cold distilled water. After drying the filter plate at 40 °C for 30′, they 20 μL of scintillating liquid (Microscint-20, Perkin-Elmer) was added to each well, and then the radioactivity was quantized with the MicroBeta2 Plate Counter (Perkin-Elmer). The conditions for binding experiments at A2A and A3 receptor subtypes were essentially the same as for the A1AR using [^3H]-NECA (N-ethylcarboxyamideAdo) at a concentration of 10 nM and [^3H]-HEMADO (2-(1-hexyne)-N^6-methylAdo) at a concentration of 1 nM as radioligands, respectively. The samples were incubated with 12 micrograms of protein for 3 h at room temperature and filtered as described above.
The non-specific binding was determined in the presence of 1 mM theophylline for the A1AR, or 100 µM R-PIA (N^6-(1-methyl-2-phenylethyl)Ado) for the A2A and A3 receptors.

[10] = test system: neuronal injury model induced by 6-hydroxydopamine; parameters: method as in PMID 35184706; details: cited from earlier work

CCOc1nc2c(N)ncnc2n1CC [ANR 94, 9-ethyl-8-ethoxyadenine]
intensity of the tremor induced by tacrine [1]: good efficacy in lowering the intensity of the tremor
pKi [2]: < 4.52
pKi [3]: 4.68
pKi [4]: 5.62
microglia activation [5]: ability to reduce microglia activation
effect on catalepsy induced by haloperidol [6]: reversed the catalepsy induced by haloperidol
contralateral turning behavior [7]: induced contralateral turning behavior
COX-2 mRNA expression vs LPS [8]: only able to significantly reduce the expression of IL-1β
IL-1β mRNA expression vs LPS [8]: significantly reduce the expression of IL-1β
IL-6 mRNA expression vs LPS [8]: only able to significantly reduce the expression of IL-1β
iNOS mRNA expression vs LPS [8]: only able to significantly reduce the expression of IL-1β
selectivity A1/A2A [9]: 52
selectivity A2B/A2A [9]: > 652
selectivity A3/A2A [9]: 457
motor deficit [10]: reducing the motor deficit
